Measurements taken from ChEMBL document CHEMBL5126627, “Structure-Kinetic Relationship Studies for the Development of Long Residence Time LpxC Inhibitors” (J Med Chem, 2022).
Converted amounts (≈) assume the structure as drawn. The source made the active and inactive calls. No cut-off for these calls is given here.

How the values were obtained:
Pseudomonas aeruginosa [1] = assay: Antibacterial activity against Pseudomonas aeruginosa PAO1 assessed as inhibition of bacterial growth incubated for 24 hrs by microdilution method; type: functional
Pseudomonas aeruginosa [2] = assay: Antibacterial activity against Pseudomonas aeruginosa paEP assessed as inhibition of bacterial growth incubated for 24 hrs by microdilution method; type: functional
Pseudomonas aeruginosa [3] = assay: Binding affinity to Pseudomonas aeruginosa LpxC assessed as binding constant (kon) incubated for 18 hrs by fluorescence based assay
Pseudomonas aeruginosa [4] = assay: Binding affinity to Pseudomonas aeruginosa LpxC assessed as binding constant (Koff) incubated for 18 hrs by fluorescence based assay
Pseudomonas aeruginosa [5] = assay: Binding affinity to Pseudomonas aeruginosa LpxC assessed as residence time incubated for 18 hrs by fluorescence based assay
[6] = Binding affinity to Pseudomonas aeruginosa LpxC assessed as inhibition constant incubated for 18 hrs by fluorescence based assay
Escherichia coli [7] = assay: Antibacterial activity against Escherichia coli ATCC 25922; type: functional
Pseudomonas aeruginosa [8] = assay: Antibacterial activity against Pseudomonas aeruginosa ATCC 27853; type: functional
Pseudomonas aeruginosa [9] = assay: Binding affinity to Pseudomonas aeruginosa LpxC assessed as residence time incubated for 18 hrs by spin column assay
Pseudomonas aeruginosa [10] = assay: Antibacterial activity against Pseudomonas aeruginosa PAO1 assessed as post antibiotic effect by measuring time required for increase in 1 log10 CFU/ml of bacteria at 4X MIC incubated for 1 hr followed by compound washout; type: functional
Pseudomonas aeruginosa [11] = assay: Antibacterial activity against Pseudomonas aeruginosa PAO1 assessed as post antibiotic effect by measuring time required for increase in 1 log10 CFU/ml of bacteria at 8X MIC incubated for 1 hr followed by compound washout; type: functional
Pseudomonas aeruginosa [12] = assay: Antibacterial activity against Pseudomonas aeruginosa PAO1 assessed as post antibiotic effect by measuring time required for increase in 1 log10 CFU/ml of bacteria at 16X MIC incubated for 1 hr followed by compound washout; type: functional
Pseudomonas aeruginosa [13] = assay: Bactericidal activity against Pseudomonas aeruginosa PAO1 assessed as reduction in 3log 10 CFU/ml at 4 to 16 times MIC incubated for 16 hrs by time-kill assay; type: functional, organism-based
Escherichia coli [14] = assay: Antibacterial activity against Escherichia coli MB2884; type: functional

CC(CCn1ccc(-c2ccc(-c3cn(Cc4ccncn4)nn3)cc2)cc1=O)(C(=O)NO)S(C)(=O)=O (racemic)
MIC (Pseudomonas aeruginosa [1]): 50 µM (≈ 26.2 µg/mL) | MIC (Pseudomonas aeruginosa [2]): 3.12 µM (≈ 1.64 µg/mL) | K (Pseudomonas aeruginosa [3]): 4.43e+07 M⁻¹ s⁻¹ | K (Pseudomonas aeruginosa [4]): 0.00017 s⁻¹ | TIME (Pseudomonas aeruginosa [5]): 1.71 h | Ki [6]: 4.2 pM

CC(CCn1ccc(-c2ccc(-c3cn(Cc4cccnc4)nn3)cc2)cc1=O)(C(=O)NO)S(C)(=O)=O (racemic)
K (Pseudomonas aeruginosa [3]): 4.28e+07 M⁻¹ s⁻¹ | K (Pseudomonas aeruginosa [4]): 0.00014 s⁻¹ | TIME (Pseudomonas aeruginosa [5]): 2.02 h | Ki [6]: 3.2 pM

CC(CCn1ccc(-c2ccc(CN3CCOCC3)cc2)cc1=O)(C(=O)NO)S(C)(=O)=O (racemic)
MIC (Pseudomonas aeruginosa [1]): 50 µM (≈ 23.2 µg/mL) | K (Pseudomonas aeruginosa [3]): 3.64e+07 M⁻¹ s⁻¹ | K (Pseudomonas aeruginosa [4]): 0.0035 s⁻¹ | TIME (Pseudomonas aeruginosa [5]): 0.0783 h | Ki [6]: 96.8 pM

O=C(NO)[C@H](Cc1ccc2ccccc2c1)NS(=O)(=O)c1ccc2ccccc2c1
MIC (Escherichia coli [7]): 1 mg/L (≈ 2.38 µM) | MIC (Pseudomonas aeruginosa [8]): > 0.25 mg/L

CC(CCn1ccc(-c2ccc(NC(=O)Cc3ccccc3)cc2)cc1=O)(C(=O)NO)S(C)(=O)=O (racemic)
MIC (Pseudomonas aeruginosa [1]): 50 µM (≈ 24.9 µg/mL) | MIC (Pseudomonas aeruginosa [2]): 3.12 µM (≈ 1.55 µg/mL) | K (Pseudomonas aeruginosa [3]): 4.48e+07 M⁻¹ s⁻¹ | K (Pseudomonas aeruginosa [4]): 0.0043 s⁻¹ | TIME (Pseudomonas aeruginosa [5]): 0.0667 h | Ki [6]: 95.4 pM

C[C@@H](O)C(NC(=O)c1ccc(-c2cn(Cc3ccccc3)nn2)cc1)C(=O)NO (mixture of isomers)
MIC (Pseudomonas aeruginosa [1]): > 50 µM | MIC (Pseudomonas aeruginosa [2]): > 12.5 µM

COc1ccc(-c2ccn(CCC(C)(C(=O)NO)S(C)(=O)=O)c(=O)c2)cc1 (racemic)
MIC (Pseudomonas aeruginosa [1]): 3.12 µM (≈ 1.23 µg/mL) | MIC (Pseudomonas aeruginosa [2]): 0.8 µM (≈ 0.316 µg/mL)

COc1ccc(-c2ccc(CNC3(C(=O)NO)CCS(=O)(=O)CC3)cc2)c(F)c1
MIC (Pseudomonas aeruginosa [1]): 0.4 µM (≈ 0.169 µg/mL) | MIC (Pseudomonas aeruginosa [2]): 0.03 µM (≈ 0.0127 µg/mL) | K (Pseudomonas aeruginosa [3]): 1.66e+07 M⁻¹ s⁻¹ | K (Pseudomonas aeruginosa [4]): 0.00053 s⁻¹ | TIME (Pseudomonas aeruginosa [5]): 0.533 h | Ki [6]: 37.9 pM | TIME (Pseudomonas aeruginosa [9]): 79 h | Time (Pseudomonas aeruginosa [10]): 1 h | Time (Pseudomonas aeruginosa [11]): 1.3 h | Time (Pseudomonas aeruginosa [12]): 1.7 h | Activity (Pseudomonas aeruginosa [13]): Active

C=CCn1cc(-c2ccc(-c3ccn(CCC(C)(C(=O)NO)S(C)(=O)=O)c(=O)c3)cc2)nn1 (racemic)
MIC (Pseudomonas aeruginosa [1]): 12.5 µM (≈ 5.89 µg/mL) | MIC (Pseudomonas aeruginosa [2]): 0.78 µM (≈ 0.368 µg/mL) | K (Pseudomonas aeruginosa [3]): 5.2e+07 M⁻¹ s⁻¹ | K (Pseudomonas aeruginosa [4]): 0.00022 s⁻¹ | TIME (Pseudomonas aeruginosa [5]): 1.38 h | Ki [6]: 6.1 pM | TIME (Pseudomonas aeruginosa [9]): 146 h

CC(CCn1ccc(-c2ccc(-c3cnnn3Cc3ccccc3)cc2)cc1=O)(C(=O)NO)S(C)(=O)=O (racemic)
MIC (Pseudomonas aeruginosa [1]): 50 µM (≈ 26.1 µg/mL) | MIC (Pseudomonas aeruginosa [2]): 12.5 µM (≈ 6.52 µg/mL) | K (Pseudomonas aeruginosa [3]): 2.78e+07 M⁻¹ s⁻¹ | K (Pseudomonas aeruginosa [4]): 0.00187 s⁻¹ | TIME (Pseudomonas aeruginosa [5]): 0.15 h | Ki [6]: 67.7 pM

CC(CCn1ccc(-c2ccc(-c3cn(Cc4ccccc4)nn3)cc2)cc1=O)(C(=O)NO)S(C)(=O)=O (racemic)
MIC (Pseudomonas aeruginosa [1]): 12.5 µM (≈ 6.52 µg/mL) | MIC (Pseudomonas aeruginosa [2]): 0.78 µM (≈ 0.407 µg/mL) | K (Pseudomonas aeruginosa [3]): 4.38e+07 M⁻¹ s⁻¹ | K (Pseudomonas aeruginosa [4]): 0.00032 s⁻¹ | TIME (Pseudomonas aeruginosa [5]): 0.955 h | Ki [6]: 10.6 pM

COc1ccc(-c2ccn(CC[C@](C)(C(=O)NO)S(C)(=O)=O)c(=O)c2)c(F)c1
MIC (Pseudomonas aeruginosa [1]): 0.625 µM (≈ 0.258 µg/mL)

CC(CCn1ccc(-c2ccc(-c3cn(Cc4ccncc4)nn3)cc2)cc1=O)(C(=O)NO)S(C)(=O)=O (racemic)
MIC (Pseudomonas aeruginosa [1]): 50 µM (≈ 26.1 µg/mL) | MIC (Pseudomonas aeruginosa [2]): 6.25 µM (≈ 3.27 µg/mL)

CC(CCn1ccc(-c2ccc(-c3cn(Cc4ccc([N+](=O)[O-])cc4)nn3)cc2)cc1=O)(C(=O)NO)S(C)(=O)=O (racemic)
MIC (Pseudomonas aeruginosa [1]): 6.25 µM (≈ 3.54 µg/mL) | MIC (Pseudomonas aeruginosa [2]): 0.1 µM (≈ 0.0567 µg/mL) | K (Pseudomonas aeruginosa [3]): 3.07e+07 M⁻¹ s⁻¹ | K (Pseudomonas aeruginosa [4]): 0.00021 s⁻¹ | TIME (Pseudomonas aeruginosa [5]): 1.31 h | Ki [6]: 7 pM

CC(CCn1ccc(-c2ccc(-c3cn(CC4CCCCC4)nn3)cc2)cc1=O)(C(=O)NO)S(C)(=O)=O (racemic)
MIC (Pseudomonas aeruginosa [1]): 50 µM (≈ 26.4 µg/mL) | MIC (Pseudomonas aeruginosa [2]): 3.12 µM (≈ 1.65 µg/mL) | K (Pseudomonas aeruginosa [3]): 3.1e+07 M⁻¹ s⁻¹ | K (Pseudomonas aeruginosa [4]): 0.00017 s⁻¹ | TIME (Pseudomonas aeruginosa [5]): 1.67 h | Ki [6]: 5.5 pM

COc1ccc(-c2ccc(CNC3(C(=O)NO)CCS(=O)(=O)CC3)cc2F)cc1
MIC (Pseudomonas aeruginosa [1]): 0.8 µM (≈ 0.338 µg/mL) | MIC (Pseudomonas aeruginosa [2]): 0.1 µM (≈ 0.0422 µg/mL) | K (Pseudomonas aeruginosa [3]): 3.45e+07 M⁻¹ s⁻¹ | K (Pseudomonas aeruginosa [4]): 0.00049 s⁻¹ | TIME (Pseudomonas aeruginosa [5]): 0.572 h | Ki [6]: 14.4 pM

CC(CCn1ccc(-c2ccccc2)cc1=O)(C(=O)NO)S(C)(=O)=O (racemic)
MIC (Pseudomonas aeruginosa [1]): 3.12 µM (≈ 1.14 µg/mL) | MIC (Pseudomonas aeruginosa [2]): 0.2 µM (≈ 0.0729 µg/mL) | Time (Pseudomonas aeruginosa [10]): 0.7 h | Time (Pseudomonas aeruginosa [11]): 1.1 h | Time (Pseudomonas aeruginosa [12]): 1.3 h | Activity (Pseudomonas aeruginosa [13]): Active

CC(CCn1ccc(-c2ccc(-c3cn(CC4CC4)nn3)cc2)cc1=O)(C(=O)NO)S(C)(=O)=O (racemic)
MIC (Pseudomonas aeruginosa [1]): 3.12 µM (≈ 1.52 µg/mL) | MIC (Pseudomonas aeruginosa [2]): 0.4 µM (≈ 0.194 µg/mL) | K (Pseudomonas aeruginosa [3]): 2.64e+07 M⁻¹ s⁻¹ | K (Pseudomonas aeruginosa [4]): 0.00025 s⁻¹ | TIME (Pseudomonas aeruginosa [5]): 1.11 h | Ki [6]: 10.2 pM | TIME (Pseudomonas aeruginosa [9]): 191 h | Time (Pseudomonas aeruginosa [10]): 1.6 h | Time (Pseudomonas aeruginosa [11]): 2.2 h | Time (Pseudomonas aeruginosa [12]): 3.1 h | Activity (Pseudomonas aeruginosa [13]): Active

CC(CCn1ccc(-c2ccc(-c3cn(Cc4ccc(F)cc4)nn3)cc2)cc1=O)(C(=O)NO)S(C)(=O)=O (racemic)
MIC (Pseudomonas aeruginosa [1]): 1.56 µM (≈ 0.842 µg/mL) | MIC (Pseudomonas aeruginosa [2]): 0.05 µM (≈ 0.027 µg/mL) | K (Pseudomonas aeruginosa [3]): 3.38e+07 M⁻¹ s⁻¹ | K (Pseudomonas aeruginosa [4]): 0.00025 s⁻¹ | TIME (Pseudomonas aeruginosa [5]): 1.14 h | Ki [6]: 8 pM | TIME (Pseudomonas aeruginosa [9]): 106 h | Time (Pseudomonas aeruginosa [10]): 1.7 h | Time (Pseudomonas aeruginosa [11]): 2.5 h | Time (Pseudomonas aeruginosa [12]): 3.5 h | Activity (Pseudomonas aeruginosa [13]): Active

CC1(Cn2cc(-c3ccc(-c4ccn(CCC(C)(C(=O)NO)S(C)(=O)=O)c(=O)c4)cc3)nn2)COC1 (racemic)
MIC (Pseudomonas aeruginosa [1]): 25 µM (≈ 12.9 µg/mL) | MIC (Pseudomonas aeruginosa [2]): 1.56 µM (≈ 0.804 µg/mL)

CC(CCn1ccc(-c2ccc(C(=O)NCc3ccccc3)cc2)cc1=O)(C(=O)NO)S(C)(=O)=O (racemic)
MIC (Pseudomonas aeruginosa [1]): 25 µM (≈ 12.4 µg/mL) | MIC (Pseudomonas aeruginosa [2]): 3.12 µM (≈ 1.55 µg/mL) | K (Pseudomonas aeruginosa [3]): 2.38e+07 M⁻¹ s⁻¹ | K (Pseudomonas aeruginosa [4]): 0.0021 s⁻¹ | TIME (Pseudomonas aeruginosa [5]): 0.133 h | Ki [6]: 274 pM

CC(CCn1ccc(-c2ccc(-c3cn(Cc4ccccn4)nn3)cc2)cc1=O)(C(=O)NO)S(C)(=O)=O (racemic)
MIC (Pseudomonas aeruginosa [1]): 6.25 µM (≈ 3.27 µg/mL) | MIC (Pseudomonas aeruginosa [2]): 0.2 µM (≈ 0.105 µg/mL) | K (Pseudomonas aeruginosa [3]): 3.72e+07 M⁻¹ s⁻¹ | Ki [6]: 5.5 pM

C[C@@H](O)[C@H](NC(=O)c1ccc(C#Cc2ccc(CN3CCOCC3)cc2)cc1)C(=O)NO
MIC (Escherichia coli [7]): 0.2 mg/L (≈ 0.457 µM)

CC(CCn1ccc(-c2ccc(-n3nccn3)cc2)cc1=O)(C(=O)NO)S(C)(=O)=O (racemic)
MIC (Pseudomonas aeruginosa [1]): 1.56 µM (≈ 0.673 µg/mL) | MIC (Pseudomonas aeruginosa [2]): 0.4 µM (≈ 0.173 µg/mL) | Time (Pseudomonas aeruginosa [10]): 1.4 h | Time (Pseudomonas aeruginosa [11]): 2.2 h | Time (Pseudomonas aeruginosa [12]): 3.4 h | Activity (Pseudomonas aeruginosa [13]): Active

CC(CCn1ccc(-c2ccc(-c3cn(CC45CC(C4)C5)nn3)cc2)cc1=O)(C(=O)NO)S(C)(=O)=O (racemic)
MIC (Pseudomonas aeruginosa [1]): 12.5 µM (≈ 6.4 µg/mL) | MIC (Pseudomonas aeruginosa [2]): 0.78 µM (≈ 0.399 µg/mL) | K (Pseudomonas aeruginosa [3]): 8.52e+07 M⁻¹ s⁻¹ | K (Pseudomonas aeruginosa [4]): 0.00015 s⁻¹ | Ki [6]: 2.1 pM | Time (Pseudomonas aeruginosa [10]): 4 h

CC(CCn1ccc(-c2ccc(-c3cn(CCO)nn3)cc2)cc1=O)(C(=O)NO)S(C)(=O)=O (racemic)
MIC (Pseudomonas aeruginosa [1]): > 50 µM | MIC (Pseudomonas aeruginosa [2]): > 12.5 µM | K (Pseudomonas aeruginosa [3]): 5.96e+07 M⁻¹ s⁻¹ | K (Pseudomonas aeruginosa [4]): 0.00018 s⁻¹ | Ki [6]: 3.7 pM

CCCc1cc(C2=N[C@@H](C(=O)NO)CO2)cc(OC)c1OC
MIC (Escherichia coli [14]): 1 mg/L (≈ 3.24 µM)

CC(C)(N)[C@H](NC(=O)c1ccc(C#CC#C[C@@H]2C[C@H]2CO)cc1)C(=O)NO [ACHN-975]
MIC (Escherichia coli [7]): 0.125 mg/L (≈ 0.338 µM) | MIC (Pseudomonas aeruginosa [8]): 0.25 mg/L (≈ 0.677 µM)
